Patent US20080032952A1, “Combination Therapies Employing Nicotinic Acid Derivatives or Fibric Acid Derivatives” (priority 2004, published 2008)

System: patients who underwent percutaneous coronary intervention (PCI)
Type: in vivo
Method: Data collection and statistical analyses—Patients who received ≧1 dose of the study drug and underwent PCI were analyzed for all primary and secondary efficacy and safety end points. […] Statistical tests were 2-sided with an a level of 0.05 and employed the intent-to-treat principle. The Wilcoxon rank-sum test was used. Due to small sample sizes, categorical variables were compared using the Fisher's exact test with the exception of the ST-segment monitoring data, which utilized the Pearson's chi-square test. Statistical analyses were performed using SAS version 8.2 (SAS Institute, Cary, N.C.).

Cc1ncc(COP(=O)(O)O)c(C=O)c1O [P5P, pyridoxal 5′-phosphate]
median periprocedural CK-MB area under the curve (periprocedural infarct size) (10 mg/kg oral ≧4 hours before PCI, then 5 mg/kg twice daily, CK-MB over 24 hours, p=0.038 vs placebo): 18.6 ng/mL | rate of post-PCI ischemia (continuous ST monitoring within 24 hours after PCI, p=0.78 vs placebo): 14.7%
